Results as given in paper PMC11189555, “Aryl amino acetamides prevent Plasmodium falciparum ring development via targeting the lipid-transfer protein PfSTART1” (Nature Communications, 2024).
Values joined by “and” are separate entries in the source; they are usually repeats but may differ in a detail not shown here. Equal values may be shown once. Read-outs that look alike come from different tables or passages of the source.

Assays:
CR-N330K parasites = experiment: Growth inhibition assay (72 h, LDH activity); format: cell-based, Plasmodium falciparum; conditions: for inhibition at 40 µM / inhibition at 0.00203221 µM / inhibition at 0.00609663 µM / inhibition at 0.0182899 µM / inhibition at 0.0548697 µM / inhibition at 0.164609 µM / inhibition at 0.493827 µM / inhibition at 1.48148 µM / inhibition at 4.44444 µM / inhibition at 13.3333 µM / EC50: Plasmodium falciparum; for inhibition at 40 µM / inhibition at 0.00203221 µM / inhibition at 0.00609663 µM / inhibition at 0.0182899 µM / inhibition at 0.0548697 µM / inhibition at 0.164609 µM / inhibition at 0.493827 µM / inhibition at 1.48148 µM / inhibition at 4.44444 µM / inhibition at 13.3333 µM: read-out: Growth inhibition assay, NORMALISED; for inhibition at 0.00203221 µM: conc 2.03221 nM; for inhibition at 0.00609663 µM: conc 6.09663 nM; for inhibition at 0.0182899 µM: conc 18.2899 nM; for inhibition at 0.0548697 µM: conc 54.8697 nM; for inhibition at 0.164609 µM: conc 164.609 nM; for inhibition at 0.493827 µM: conc 493.827 nM; for inhibition at 1.48148 µM: conc 1481.48 nM; for inhibition at 4.44444 µM: conc 4444.44 nM
Protocol: (§1) Parasite growth assays with inhibitory compounds were performed as per[11] and are fully described in the Supplementary Information.
(§2) Molecular biology and transfection of P. falciparum: CRISPR method.
(§3) The full 5’ homology region of pfstart1 (either WT, N309K or N330K) was amplified from pPfSTART1-HA-2A-Neo-glmS with the same 5’ BglII primer and a new 3’ primer that replaced with PstI with SpeI and introduced a stop codon. The PCR product was then digested with BglII and SpeI and inserted into similarly digested p1.2 parasite vector2. The p1.2 vector had previously been inserted with a homology region amplified from the 3’ end of the pfstart1 gene (3’HB) to form a second homology block for double recombination. The primers used to amplify 3’HB are listed primers listed in […]
(§4) 60 μg of p1.2-PfSTART1(WT/N309K/N330K) plasmid was linearised with KasI, precipitated in 3 M sodium acetate and ethanol (70% final concentration) overnight at -20°C. The DNA pellet was washed in cold 70% ethanol and resuspended in cytomix 3.
(§5) 50 μ M of crRNA ( Table S 2) and 50 μM of tracRNA (Integrated DNA Technologies) were allowed to form a duplex (5 min at 95°C), and Cas9 enzyme (Integrated DNA Technologies) was added, and incubated for 20 min at room temperature 4. This crRNA -tracRNA -Cas9 mix was added to each DNA preparation and transfected to 3D7 ring parasites using the Bio -Rad Gene Pulser at 310 V and 950 μF.
(§6) Parasites containing the transfected DNA were selected using 2.5 nM WR99210 (Jacobus). Parasites lines were cloned using limiting dilution. Correct integration was tested by PCR (using primer START_5’UTR.F and START_Int.R1 , Table S 2), and sequencing was done using the primers START_3F and START_Int.R2 (Table S 2).
(§7) Growth inhibition assays. Synchronised ring-stage parasites (0.3-0.6% parasitemia, 2% haematocrit) were grown for 72 h in a serial-dilution of the compound under […]
(§8) and compound 4. Note that M-833 was first purchased from MolPort (MolPort -002-267-916) then made in-house at WEHI: the differences observed in EC50s across experiments are attributed to the different batches of M -833. For some experiments, 0, 0.25 or 2.5 mM of glucosamine (GlcN) was also added. Experiments were set up in technical duplicates or triplicates. Following a freeze -thaw cycle, lactate dehydrogenase (LDH) activity was assessed as an indicator of parasite growt h 5. 30 μL of parasite culture was incubated for 30 min in the dark with 75 μL Malstat mixture (0.1 M Tris pH 9.0, 20 g/L lactic acid, pH 7.5, 0.2% Triton-X100, 0.5 g/L acetylpyridine adenine dinucleotide (APAD, Sigma), 200 μg/mL nitroblue tetrazolium (NBT; Sigma), 1 μg/mL phenozine ethosulfate (PES; Sigma)). Absorbance was then measured at 650 nm, transformed using the formula below, plotted against the logarithm of the concentrations, and a non-linear regression (log(inhibitor) vs. response, variable slope) was calculated using GraphPad Prism to assess the half-inhibitory […]
(§9) Growth inhibition % = (1 − average(sample)− average(uRBC)) ∗ 100 […]
(§10) The DMSO samples were also used to assess growth of parasite in the presence of 0.25 and 2.5 mM GlcN (normalised by DMSO in 0 mM GlcN).
(§11) Egress, invasion & recovery assay. To measure egress, invasion and follow up recovery in the presence of different compounds, we adapted the method developed in6, using Hyp1-Nluc parasites7. These parasites episomally express the exported PEXEL protein Hyp1 (PF3D7_0113300) tagged with a NanoLuc luciferase (NLuc) and were selected with 2.5 nM WR99210 (Jacobus). Highly synchronised schizonts were obtained using ML10 (LifeArc) and sorbitol synchronisation, and Percoll-purified (the culture was gently layered over 67% Percoll (Cytiva) in RPMI, and centrifuged for 15 min at 1500 g and the schizont layer was collected and washed). In a 96-well plate, […]

CR-N309K parasites = experiment: Growth inhibition assay (72 h, LDH activity); format: cell-based, Plasmodium falciparum
Protocol: as §1, §2, §3, §4, §5, §6, §7, §8, §9, §10, §11

[1] = 0.25 mM GlcN, M833 dilution point 1 of 10 (starting concentration 40 uM)
[2] = 2.5 mM GlcN, M833 dilution point 1 of 10 (starting concentration 40 uM)
[3] = 2.5 mM GlcN, M833 dilution point 2 of 10 from 40 uM start
[4] = 2.5 mM GlcN, M833 dilution point 3 of 10 from 40 uM start

## Cc1cc(Cl)c(S(=O)(=O)N2CCCC2)cc1OCC(=O)NC1CCCCC1 [M-833]
CR-N330K parasites
  effect of GlcN addition on EC50: did not impact the EC50
CR-N330K parasites; 0 mM GlcN, conc 13333.3 nM
  Growth inhibition assay, NORMALISED: 83.0053 and 71.7328 and 58.9456
CR-N330K parasites; 0 mM GlcN, conc 40000 nM
  Growth inhibition assay, NORMALISED: 89.2357 and 89.8575
  inhibition at 40 µM: 98.2%
CR-N330K parasites; [1]
  NORMALISED (growth inhibition, LDH absorbance vs DMSO and uRBC): 90.8081 and 87.9797 and 87.1506
CR-N330K parasites; [2]
  NORMALISED (growth inhibition, LDH absorbance vs DMSO and uRBC): 93.6897 and 84.3760 and 68.7638
CR-N330K parasites; [3]
  NORMALISED (growth inhibition, LDH absorbance vs DMSO and uRBC): 66.9588 and 63.6686 and 78.5050
CR-N330K parasites; [4]
  NORMALISED (growth inhibition, LDH absorbance vs DMSO and uRBC): 62.4014 and 35.5339 and 55.9192
CR-N330K parasites; Fig 2D
  fold resistance compared to CR-WT: over 81 fold
CR-N330K parasites; 0.25 mM GlcN
  inhibition at 0.00203221 µM: 1.04%
  inhibition at 0.00609663 µM: 4.9%
  inhibition at 0.0182899 µM: 1.5%
  inhibition at 0.0548697 µM: 3.6%
  inhibition at 0.164609 µM: -2.8%
  inhibition at 0.493827 µM: 5.89%
  inhibition at 1.48148 µM: 18.6%
  inhibition at 4.44444 µM: 54.4%
CR-N330K parasites; 0.25 mM GlcN, conc 13333.3 nM
  inhibition at 13.3333 µM: 83.8%
CR-N330K parasites; 0.25 mM GlcN, conc 40000 nM
  inhibition at 40 µM: 98.3%
CR-N330K parasites; 2.5 mM GlcN
  inhibition at 0.00203221 µM: -48.3%
  inhibition at 0.00609663 µM: -31%
  inhibition at 0.0182899 µM: -30.8%
  inhibition at 0.0548697 µM: -27.3%
  inhibition at 0.164609 µM: -23.4%
  inhibition at 0.493827 µM: -11.7%
  inhibition at 1.48148 µM: 13.1%
  inhibition at 4.44444 µM: 36.6%
CR-N330K parasites; 2.5 mM GlcN, conc 13333.3 nM
  inhibition at 13.3333 µM: 32.3%
CR-N330K parasites; 2.5 mM GlcN, conc 40000 nM
  inhibition at 40 µM: 94%
CR-N330K parasites; 72 h, read-out: EC50 (95% confidence interval), Fig 2D, 72 h, n = 3
  EC50: 9.51 µM
CR-N330K parasites; Fig 3F, 0 mM GlcN, n = 3, read-out: EC50 M-833 (95% confidence interval)
  EC50: 9.5 µM
CR-N330K parasites; read-out: EC50 M-833 (95% confidence interval), Fig 3F, 0.25 mM GlcN, n = 3
  EC50: 8.92 µM
CR-N330K parasites; read-out: EC50 M-833 (95% confidence interval), Fig 3F, 2.5 mM GlcN, n = 3
  EC50: 8.73 µM
CR-N309K parasites; 0 mM GlcN, conc 13333.3 nM
  Growth inhibition assay, NORMALISED: 96.3035 and 81.5013
CR-N309K parasites; 0 mM GlcN, conc 40000 nM
  Growth inhibition assay, NORMALISED: 90.3753
CR-N309K parasites; [1]
  NORMALISED (growth inhibition, LDH absorbance vs DMSO and uRBC): 109.622 and 93.8958 and 89.0356
CR-N309K parasites; 0.25 mM GlcN, M833 dilution point 2 of 10 from 40 uM start
  NORMALISED (growth inhibition, LDH absorbance vs DMSO and uRBC): 100.45 and 85.8318 and 85.1660
CR-N309K parasites; 0.25 mM GlcN, M833 dilution point 3 of 10 from 40 uM start
  NORMALISED (growth inhibition, LDH absorbance vs DMSO and uRBC): 91.9964 and 60.0606 and 52.4793
CR-N309K parasites; [2]
  NORMALISED (growth inhibition, LDH absorbance vs DMSO and uRBC): 151.073 and 87.1969 and 79.8969
CR-N309K parasites; [3]
  NORMALISED (growth inhibition, LDH absorbance vs DMSO and uRBC): 113.734 and 82.9449 and 82.5963
CR-N309K parasites; [4]
  NORMALISED (growth inhibition, LDH absorbance vs DMSO and uRBC): 124.034 and 76.1318 and 75.9272
CR-N309K parasites; Fig 2D
  fold resistance compared to CR-WT: over 81 fold
CR-N309K parasites; Plasmodium falciparum, 0 mM GlcN, conc 40000 nM, read-out: Growth inhibition assay, NORMALISED
  inhibition at 40 µM: 107%
CR-N309K parasites; Plasmodium falciparum, 72 h, read-out: EC50 (95% confidence interval), Fig 2D, 72 h, n = 3
  EC50: 4.03 µM
CR-N309K parasites; Plasmodium falciparum, Fig 3F, 0 mM GlcN, n = 3, read-out: EC50 M-833 (95% confidence interval)
  EC50: 4 µM
CR-N309K parasites; Plasmodium falciparum, read-out: EC50 M-833 (95% confidence interval), Fig 3F, 0.25 mM GlcN, n = 3
  EC50: 2.18 µM
CR-N309K parasites; Plasmodium falciparum, read-out: EC50 M-833 (95% confidence interval), Fig 3F, 2.5 mM GlcN, n = 3
  EC50: 0.768 µM
CR-N309K parasites; not statistically significant
  fold reduction of EC50 on addition of 2.5 mM GlcN: 5.2 fold
